In publication PMC10935294, “Biodirected Screening and Preparation of Larimichthys crocea Angiotensin-I-Converting Enzyme-Inhibitory Peptides by a Combined In Vitro and In Silico Approach” (Molecules, 2024):
Where two headings read alike, the source gives them in different places. No end group written: not given here.

Assays:
ACE [1] = biological target: T1, ACE (Oryctolagus cuniculus, UniProt P12822); conditions: cited from earlier work
T1 sequence (P12822 34-1310): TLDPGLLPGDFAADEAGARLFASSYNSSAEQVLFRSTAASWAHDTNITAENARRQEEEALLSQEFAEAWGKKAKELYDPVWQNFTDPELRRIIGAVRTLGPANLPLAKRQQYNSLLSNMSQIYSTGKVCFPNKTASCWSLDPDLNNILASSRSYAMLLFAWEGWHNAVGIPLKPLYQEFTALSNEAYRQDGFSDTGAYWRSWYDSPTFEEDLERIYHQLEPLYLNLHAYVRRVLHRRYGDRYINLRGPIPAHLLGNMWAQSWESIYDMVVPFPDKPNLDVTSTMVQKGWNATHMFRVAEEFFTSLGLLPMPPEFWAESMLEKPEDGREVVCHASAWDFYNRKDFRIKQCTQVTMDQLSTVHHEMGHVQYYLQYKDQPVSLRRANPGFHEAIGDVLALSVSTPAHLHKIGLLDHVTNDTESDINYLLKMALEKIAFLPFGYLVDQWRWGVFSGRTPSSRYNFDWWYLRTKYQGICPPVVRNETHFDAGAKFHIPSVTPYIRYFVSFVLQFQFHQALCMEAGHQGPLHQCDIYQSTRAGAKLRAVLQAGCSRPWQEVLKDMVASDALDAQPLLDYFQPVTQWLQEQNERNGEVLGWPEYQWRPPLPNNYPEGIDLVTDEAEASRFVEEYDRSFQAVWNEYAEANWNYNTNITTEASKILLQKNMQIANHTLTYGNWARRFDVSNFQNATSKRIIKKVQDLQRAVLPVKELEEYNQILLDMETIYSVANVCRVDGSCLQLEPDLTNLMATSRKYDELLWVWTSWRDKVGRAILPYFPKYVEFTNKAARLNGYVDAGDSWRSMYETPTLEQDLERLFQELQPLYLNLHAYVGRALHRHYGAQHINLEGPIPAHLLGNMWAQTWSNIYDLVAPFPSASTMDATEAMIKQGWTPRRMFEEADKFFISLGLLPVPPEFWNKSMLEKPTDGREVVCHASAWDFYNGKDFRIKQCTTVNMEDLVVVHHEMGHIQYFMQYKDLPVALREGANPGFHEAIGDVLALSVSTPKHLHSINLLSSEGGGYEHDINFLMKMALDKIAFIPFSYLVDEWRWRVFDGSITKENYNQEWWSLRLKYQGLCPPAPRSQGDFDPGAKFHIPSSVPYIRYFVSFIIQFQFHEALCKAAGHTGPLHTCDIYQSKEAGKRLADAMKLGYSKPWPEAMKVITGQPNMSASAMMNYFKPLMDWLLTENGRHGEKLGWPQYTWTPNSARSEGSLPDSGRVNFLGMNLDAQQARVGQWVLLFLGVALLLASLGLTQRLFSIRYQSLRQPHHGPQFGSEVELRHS

ACE [2] = biological target: T1, ACE; test: ACE-inhibitory activity (HHL substrate, HPLC determination of hippuric acid); type: biochemical; conditions: synthetic peptides, n = 3, mean ± SD; read-out: IC50 value before digestion
Protocol: (§1) The methods were previously established in our laboratory. […] Then, 60 μL of peptide samples (1 mg/mL) and 20 μL of ACE solution (0.1 U/mL) were placed in a 37 °C water bath for 10 min, and 50 μL of hippuryl-histidyl-leucine (HHL) solution (1 mM) was added to react for 60 min. Finally, the reaction was terminated by adding 1 M HCL (100 μL). The sample solution of the determination group was replaced by 60 μL boric acid buffer solution (pH = 8.3 0.3 M NaCl) in the control tube. Then, 10 μL boric acid buffer was put into the blank control tube instead of the ACE solution used in the control group. Column chromatography conditions were as follows: Waters-C18, 5 μm, 4.6 mm × 250 mm; detection wavelength: 228 nm; mobile phase: 80% A: 0.1% formic acid + 0.1% trifluoroacetic acid + 98% deionized water, 20% B: 100% acetonitrile; flow rate: 0.8 mL/min; column temperature: 30 °C; injection volume: 10 μL. The ACE-inhibition rate was calculated by Formula (1):(1) ACEinhibitoryrate%=(HAc−HAs)/([HA]c−[HA]H)×100% where HA is the concentration of hippuric acid, [HA]c is the concentration of HA in the control sample, [HA]s is the sample HA concentration, and [HA]H is the blank control HA concentration. The IC50 value was defined as the inhibitor concentration inhibiting 50% of ACE activity. First, the in vitro ACE inhibition rate was determined for samples of different concentrations. Then, the fitting curve and equation were drawn with the sample mass concentration as abscissa and ACE inhibition rate as ordinate. The value of IC50 was calculated according to the fitted curve.

ACE [3] = biological target: T1, ACE; test: ACE-inhibitory activity after simulated in vitro gastrointestinal digestion (pepsin, trypsin); type: biochemical; conditions: pepsin pH 2, 2 h, then trypsin pH 7.5, 2 h, 37 °C; mean ± SD
Protocol: as §1
A slight modification of the research methodology based on the previous study was implemented. With slight modification, the peptide samples were dissolved in deionized water (1 mg/mL), adjusted the pH to 2 with 1 M HCl, pepsin (2% w/w) was added, and the reaction was run for 2 h at 37 °C in the temperature shaker. The reaction was adjusted to pH = 7.5 with 2 M NaOH, and trypsin (2% w/w) was added for 2 h. Then, it was placed in boiling water at 100 °C for 10 min and finally removed to wait for the temperature to decrease to room temperature and centrifuged to detect their ACE activity.

Row | IC50 (ACE [2]) [µM] | IC50 (ACE [3]) [µM] | Substance | further results
1 | 10.3 ± 0.21 | 11.4 ± 0.43 | FYEPFM [FYEPFM, Phe-Tyr-Glu-Pro-Phe-Met] | 
2 | 5.34 ± 0.15 | 33.73 ± 0.23 | IHFGTTGK [IHFGTTGK, Ile-His-Phe-Gly-Thr-Thr-Gly-Lys] | 
3 | 6.53 ± 0.21 | 15.65 ± 0.15 | INEMLDTK [INEMLDTK, Ile-Asn-Glu-Met-Leu-Asp-Try-Lys] | 
4 | 0.63 ± 0.09 | 0.8 ± 0.08 | IPYADFK [IPYADFK, Ile-Pro-Tyr-Ala-Asp-Phe-Lys] | 
5 | 9.41 ± 0.24 | 24.3 ± 0.29 | LYDHLGK [LYDHLGK, Leu-Tyr-Asp-His-Leu-Gly-Lys] | 
6 | 6.23 ± 0.34 | 7.27 ± 0.17 | NWPWMK [NWPWMK, Asn-Trp-Pro-Trp-Met-Lys] | 

More lines, now with the values behind:

Row | Substance | IC50 (ACE [2]) [µM] | IC50 (ACE [3]) [µM] | further results
7 | FDGSPVGY |  |  | Form of ACE inhibition (ACE [1]): competitively combine with the center site of ACE
8 | Tyr-Asn-Leu [YNL] |  |  | Reported activity (ACE [1]): ACE-inhibitory activity
9 | VFDGVLRPGQ |  |  | Form of ACE inhibition (ACE [1]): non-competitive inhibition
10 | VGLFPSRSF |  |  | Form of ACE inhibition (ACE [1]; peptide from tilapia skin): non-competitive inhibition
11 | VVLASLK |  |  | IC50 (ACE [1]; peptides from Pacific saury): 962 µM
